Drawing on patent publication US7361659B2, “Pyrrazolo-pyrimidine derivatives” (Hoffmann-La Roche Inc., priority 2005, dated 2008), this text covers melting point for 21 molecules.

In general, melting point refers to the temperature of the solid-liquid transition. The molecule `Cc1nc(NC(=O)c2cnn3c(C(F)(F)F)cc(-c4ccc(C(F)(F)F)cc4)nc23)sc1S(=O)(=O)N(C)CCO` [Example 71, 7-Trifluoromethyl-5-(4-trifluoromethyl-phenyl)-pyrazolo[1,5-a]pyrimidine-3-carboxylic acid {5-[(2-hydroxy-ethyl)-methyl-sulfamoyl]-4-methyl-thiazol-2-yl}-amide] gave a melting point of 266 °C.
`Cc1nc(NC(=O)c2cnn3c(C(F)(F)F)cc(-c4ccc(C(F)(F)F)c(OCC(F)(F)F)c4)nc23)sc1S(=O)(=O)NC(C)(C)CO` [Example 32, 5-[3-(2,2,2-Trifluoro-ethoxy)-4-trifluoromethyl-phenyl]-7-trifluoromethyl-pyrazolo[1,5-a]pyrimidine-3-carboxylic acid [5-(2-hydroxy-1,1-dimethyl-ethylsulfamoyl)-4-methyl-thiazol-2-yl]-amide] yielded a melting point of 275 °C.
The molecule `Cc1nc(NC(=O)c2cnn3c(C(F)(F)F)cc(-c4ccc(C(F)(F)F)c(Cl)c4)nc23)sc1S(N)(=O)=O` [Example 25, 5-(3-Chloro-4-trifluoromethyl-phenyl)-7-trifluoromethyl-pyrazolo[1,5-a]pyrimidine-3-carboxylic acid (4-methyl-5-sulfamoyl-thiazol-2-yl)-amide] came in with a melting point of 299 °C.
In the case of `Cc1nc(NC(=O)c2cnn3c(C4CC4)cc(-c4ccc(Cl)cc4)nc23)sc1S(=O)(=O)NC(C)(C)CO` [Example 62, 5-(4-Chloro-phenyl)-7-cyclopropyl-pyrazolo[1,5-a]pyrimidine-3-carboxylic acid [5-(2-hydroxy-1,1-dimethyl-ethylsulfamoyl)-4-methyl-thiazol-2-yl]-amide] it was 293 to 294 °C; in that of `Cc1sc(S(N)(=O)=O)cc1NC(=O)c1cnn2c(C(F)(F)F)cc(-c3ccc(C(F)(F)F)cc3)nc12` [Example 47, 7-Trifluoromethyl-5-(4-trifluoromethyl-phenyl)-pyrazolo[1,5-a]pyrimidine-3-carboxylic acid (2-methyl-5-sulfamoyl-thiophen-3-yl)-amide], 297 °C; in that of `Cc1nc(NC(=O)c2cnn3c(C(F)(F)F)cc(-c4ccc(C(F)(F)F)cc4)nc23)sc1S(=O)(=O)NC(CO)CO` [Example 64, 7-Trifluoromethyl-5-(4-trifluoromethyl-phenyl)-pyrazolo[1,5-a]pyrimidine-3-carboxylic acid [5-(2-hydroxy-1-hydroxymethyl-ethylsulfamoyl)-4-methyl-thiazol-2-yl]-amide], 215 °C.
`Cc1cc(-c2cc(C(F)F)n3ncc(C(=O)Nc4nc(C)c(S(N)(=O)=O)s4)c3n2)ccc1C(F)(F)F` [Example 33, 7-Difluoromethyl-5-(3-methyl-4-trifluoromethyl-phenyl)-pyrazolo[1,5-a]pyrimidine-3-carboxylic acid (4-methyl-5-sulfamoyl-thiazol-2-yl)-amide] showed a melting point of 307 °C.
As for `Cc1cc(-c2cc(C(F)(F)F)n3ncc(C(=O)Nc4cc(S(=O)(=O)NC(C)(C)CO)sc4Cl)c3n2)ccc1C(F)(F)F` [Example 16, 5-(3-Methyl-4-trifluoromethyl-phenyl)-7-trifluoromethyl-pyrazolo[1,5-a]pyrimidine-3-carboxylic acid [2-chloro-5-(2-hydroxy-1,1-dimethyl-ethylsulfamoyl)-thiophen-3-yl]-amide], the melting point was 207 °C.
`O=C(Nc1cc(S(=O)(=O)N(CCO)CCO)sc1Cl)c1cnn2c(C(F)F)cc(-c3ccc(C(F)(F)F)cc3)nc12` [Example 34, 7-Difluoromethyl-5-(4-trifluoromethyl-phenyl)-pyrazolo[1,5-a]pyrimidine-3-carboxylic acid {5-[bis-(2-hydroxy-ethyl)-sulfamoyl]-2-chloro-thiophen-3-yl}-amide] had a melting point of 216 °C.
The result for `Cc1cc(-c2cc(C(F)F)n3ncc(C(=O)Nc4nc(C)c(S(=O)(=O)NC(C)(C)CO)s4)c3n2)ccc1C(F)(F)F` [Example 39, 7-Difluoromethyl-5-(3-methyl-4-trifluoromethyl-phenyl)-pyrazolo[1,5-a]pyrimidine-3-carboxylic acid [5-(2-hydroxy-1,1-dimethyl-ethylsulfamoyl)-4-methyl-thiazol-2-yl]-amide] reads 271 °C; that for `NS(=O)(=O)c1cc(NC(=O)c2cnn3c(C(F)(F)F)cc(-c4ccc(Cl)cc4)nc23)c(Cl)s1` [Example 9, 5-(4-Chloro-phenyl)-7-trifluoromethyl-pyrazolo[1,5-a]pyrimidine-3-carboxylic acid (2-chloro-5-sulfamoyl-thiophen-3-yl)-amide], 329 °C.
The molecule `CN(CCO)S(=O)(=O)c1cc(NC(=O)c2cnn3c(C(F)F)cc(-c4ccc(C(F)(F)F)cc4)nc23)c(Cl)s1` [Example 72, 7-Difluoromethyl-5-(4-trifluoromethyl-phenyl)-pyrazolo[1,5-a]pyrimidine-3-carboxylic acid {2-chloro-5-[(2-hydroxy-ethyl)-methyl-sulfamoyl]-thiophen-3-yl}-amide] displayed a melting point of 231 °C.
In the case of `Cc1nc(NC(=O)c2cnn3c(C(F)(F)F)cc(-c4ccc(Cl)c(Cl)c4)nc23)sc1S(N)(=O)=O` [Example 26, 5-(3,4-Dichloro-phenyl)-7-trifluoromethyl-pyrazolo[1,5-a]pyrimidine-3-carboxylic acid (4-methyl-5-sulfamoyl-thiazol-2-yl)-amide] it was 307 °C.
`Cc1nc(NC(=O)c2cnn3c(C(F)F)cc(-c4ccc(C(F)(F)F)cc4)nc23)sc1S(=O)(=O)NC(CO)CO` [Example 63, 7-Difluoromethyl-5-(4-trifluoromethyl-phenyl)-pyrazolo[1,5-a]pyrimidine-3-carboxylic acid [5-(2-hydroxy-1-hydroxymethyl-ethylsulfamoyl)-4-methyl-thiazol-2-yl]-amide] gave a melting point of 217 °C.
`Cc1nc(NC(=O)c2cnn3c(C(F)(F)F)cc(-c4ccc(C(F)(F)F)cc4)nc23)sc1S(=O)(=O)NC(C)(CO)CO` [Example 42, 7-Trifluoromethyl-5-(4-trifluoromethyl-phenyl)-pyrazolo[1,5-a]pyrimidine-3-carboxylic acid [5-(2-hydroxy-1-hydroxymethyl-1-methyl-ethylsulfamoyl)-4-methyl-thiazol-2-yl]-amide] returned a melting point of 250 °C.
In the case of `NCCNS(=O)(=O)c1cc(NC(=O)c2cnn3c(C(F)(F)F)cc(-c4ccc(C(F)(F)F)cc4)nc23)c(Cl)s1` [Example 78, 7-Trifluoromethyl-5-(4-trifluoromethyl-phenyl)-pyrazolo[1,5-a]pyrimidine-3-carboxylic acid [5-(2-amino-ethylsulfamoyl)-2-chloro-thiophen-3-yl]-amide] it was 195 °C.
The result for `Cc1nc(NC(=O)c2cnn3c(C(F)(F)F)cc(-c4ccc(Cl)cc4)nc23)sc1S(N)(=O)=O` [Example 19, 5-(4-Chloro-phenyl)-7-trifluoromethyl-pyrazolo[1,5-a]pyrimidine-3-carboxylic acid (4-methyl-5-sulfamoyl-thiazol-2-yl)-amide] reads 305 °C.
The result for `NCCNS(=O)(=O)c1cc(NC(=O)c2cnn3c(C(F)F)cc(-c4ccc(C(F)(F)F)cc4)nc23)c(Cl)s1` [Example 65, 7-Difluoromethyl-5-(4-trifluoromethyl-phenyl)-pyrazolo[1,5-a]pyrimidine-3-carboxylic acid [5-(2-amino-ethylsulfamoyl)-2-chloro-thiophen-3-yl]-amide] reads 150 °C; that for `CC(C)(CO)NS(=O)(=O)c1cnc(NC(=O)c2cnn3c(C(F)(F)F)cc(-c4ccc(C(F)(F)F)cc4)nc23)s1` [Example 59, 7-Trifluoromethyl-5-(4-trifluoromethyl-phenyl)-pyrazolo[1,5-a]pyrimidine-3-carboxylic acid [5-(2-hydroxy-1,1-dimethyl-ethylsulfamoyl)-thiazol-2-yl]-amide], 292 °C.
As for `CC(C)(CO)NS(=O)(=O)c1cc(NC(=O)c2cnn3c(C(F)F)cc(-c4ccc(C(F)(F)F)cc4)nc23)c(Cl)s1` [Example 5, 7-Difluoromethyl-5-(4-trifluoromethyl-phenyl)-pyrazolo[1,5-a]pyrimidine-3-carboxylic acid [2-chloro-5-(2-hydroxy-1,1-dimethyl-ethylsulfamoyl)-thiophen-3-yl]-amide], the melting point is 233 °C.
As for `NS(=O)(=O)c1cnc(NC(=O)c2cnn3c(C(F)(F)F)cc(-c4ccc(C(F)(F)F)cc4)nc23)s1` [Example 51, 7-Trifluoromethyl-5-(4-trifluoromethyl-phenyl)-pyrazolo[1,5-a]pyrimidine-3-carboxylic acid (5-sulfamoyl-thiazol-2-yl)-amide], the melting point was 309 °C.
